# Assay results published in patent EP4722213A1, “NITROGEN-CONTAINING FUNCTIONAL GROUP-SUBSTITUTED PYRIDAZINOPYRIDONE DERIVATIVE AND USE THEREOF” (Sichuan Huiyu Pharmaceutical Co., Ltd., priority 2023, dated 2024).
# Structures can show the parent of a compound that is named as a salt.
# Biological target: T1, SOS1 (Homo sapiens, UniProt Q07889)
# T1 sequence (Q07889 1-1333): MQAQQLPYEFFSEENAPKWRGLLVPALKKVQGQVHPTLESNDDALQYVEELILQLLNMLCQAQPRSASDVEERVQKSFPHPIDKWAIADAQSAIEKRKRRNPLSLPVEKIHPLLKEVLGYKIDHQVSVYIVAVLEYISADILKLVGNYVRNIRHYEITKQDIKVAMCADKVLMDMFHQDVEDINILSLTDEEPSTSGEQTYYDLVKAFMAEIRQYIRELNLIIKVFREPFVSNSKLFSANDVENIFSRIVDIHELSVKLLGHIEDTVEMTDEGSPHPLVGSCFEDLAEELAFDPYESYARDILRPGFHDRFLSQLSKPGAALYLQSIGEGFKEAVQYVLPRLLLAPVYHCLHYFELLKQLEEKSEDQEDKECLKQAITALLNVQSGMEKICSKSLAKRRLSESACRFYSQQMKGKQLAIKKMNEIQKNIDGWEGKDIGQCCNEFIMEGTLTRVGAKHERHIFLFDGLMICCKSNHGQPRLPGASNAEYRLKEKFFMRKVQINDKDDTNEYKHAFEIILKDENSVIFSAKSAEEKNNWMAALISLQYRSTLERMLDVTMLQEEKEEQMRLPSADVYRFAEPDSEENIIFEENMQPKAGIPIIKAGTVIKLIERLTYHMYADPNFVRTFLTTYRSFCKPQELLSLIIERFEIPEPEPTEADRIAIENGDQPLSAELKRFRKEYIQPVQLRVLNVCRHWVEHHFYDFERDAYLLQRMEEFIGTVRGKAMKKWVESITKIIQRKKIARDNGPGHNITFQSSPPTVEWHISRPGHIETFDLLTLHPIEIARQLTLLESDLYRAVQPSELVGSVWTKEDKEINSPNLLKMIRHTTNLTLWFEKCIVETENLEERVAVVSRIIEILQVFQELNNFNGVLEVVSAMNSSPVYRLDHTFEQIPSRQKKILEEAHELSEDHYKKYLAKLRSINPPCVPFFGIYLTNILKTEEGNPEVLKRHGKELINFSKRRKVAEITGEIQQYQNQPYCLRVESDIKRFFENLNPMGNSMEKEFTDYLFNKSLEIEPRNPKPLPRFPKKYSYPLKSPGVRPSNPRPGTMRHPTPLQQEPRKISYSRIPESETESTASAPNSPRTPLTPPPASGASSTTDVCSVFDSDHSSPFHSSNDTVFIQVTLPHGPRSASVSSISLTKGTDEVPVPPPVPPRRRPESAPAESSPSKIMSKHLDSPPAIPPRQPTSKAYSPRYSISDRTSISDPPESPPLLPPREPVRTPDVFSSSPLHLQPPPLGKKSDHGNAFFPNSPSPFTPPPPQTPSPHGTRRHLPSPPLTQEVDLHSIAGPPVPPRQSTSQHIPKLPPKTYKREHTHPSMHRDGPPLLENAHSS
# Assay: biochemical
row,SMILES,IC50
1,"Cc1c([C@@H](C)Nc2nnc(N3CC(F)(F)C3)c3cc(=O)n(C4CC4)cc23)cccc1C(F)(F)F [Example 54, (R)-6-cyclopropyl-1-(3,3-difluoroazetidin-1-yl)-4-((1-(2-methyl-3-(trifluoromethyl)phenyl)ethyl)amino)pyr ido[3,4-d]pyridazin-7(6H)-one]",50.3 nM
2,"Cc1c(C#N)cccc1[C@@H](C)Nc1nnc(N(C)C)c2cc(=O)n(C3CC3)cc12 [Example 39, (R)-3-(1-((6-cyclopropyl-1-(dimethylamino)-7-oxo-6,7-dihydropyrido[3,4-d]pyridazin-4-yl)amino)ethyl)-2-methylbenzonitrile]",23.8 nM
3,"Cc1c(C#N)cccc1[C@@H](C)Nc1nnc(N2CCN(CC3CC3)CC2)c2cc(=O)n(C3CC3)cc12 [Example 102, (R)-3-(1-((6-cyclopropyl-1-(4-(cyclopropylmethyl)piperazin-1-yl)-7-oxo-6,7-dihydropyrido[3,4-d]pyridazin-4-yl)amino)ethyl)-2-methylbenzonitrile]",12.5 nM
4,"Cc1cc(N)cc([C@@H](C)Nc2nnc(N3CCN(C)CC3)c3cc(=O)n(C4(C)CC4)cc23)c1F [Example 152, (R)-4-((1-(5-amino-2-fluoro-3-methylphenyl)ethyl)amino)-6-(1-methylcyclopropyl)-1-(4-methylpiperazin-1-yl)pyrido[3,4-d]pyridazin-7(6H)-one]",4.2 nM
5,"C[C@@H](Nc1nnc(N2CCC[C@@H]2CO)c2cc(=O)n(C3(C)CC3)cc12)c1cccc(C(F)F)c1F [Example 139, 4-(((R)-1-(3-(difluoromethyl)-2-fluorophenyl)ethyl)amino)-1-((R)-2-(hydroxymethyl)pyrrolidin-1-yl)-6-(1-methylcyclopropyl) pyrido[3,4-d]pyridazin-7(6H)-one]",6.2 nM
6,"Cc1c(C#N)cccc1[C@@H](C)Nc1nnc(N2CCS(=O)(=O)CC2)c2cc(=O)n(C3(C)CC3)cc12 [Example 72, (R)-3-(1-((1-(1,1-dioxidothiomorpholino)-6-(1-methylcyclopropyl)-7-oxo-6,7-dihydropyrido[3,4-d]pyridazin-4-yl)amino)ethyl)-2-methylbenzonitrile]",50.4 nM
7,"Cc1c(C#N)cccc1[C@@H](C)Nc1nnc(N(C)C)c2cc(=O)n(C3(C)CC3)cc12 [Example 84, (R)-3-(1-((1-(dimethylamino)-6-(1-methylcyclopropyl)-7-oxo-6,7-dihydropyrido[3,4-d]pyridazin-4-yl)amino)ethyl)-2-methylbenzonitrile]",18.7 nM
8,"C[C@@H](Nc1nnc(N2CC(CO)C2)c2cc(=O)n(C3(C)CC3)cc12)c1cccc(C(F)(F)CO)c1 [Example 229, (R)-4-((1-(3-(1,1-difluoro-2-hydroxyethyl)phenyl)ethyl)amino)-1-(3-(hydroxymethyl)azetidin-1-yl)-6-(1-methylcyclopropyl) pyrido[3,4-d]pyridazin-7(6H)-one]",4.5 nM
9,"Cc1c(C#N)cccc1[C@@H](C)Nc1nnc(N2CCC2)c2cc(=O)n(C3CC3)cc12 [Example 36, (R)-3-(1-((1-(azetidin-1-yl)-6-cyclopropyl-7-oxo-6,7-dihydropyrido[3,4-d]pyridazin-4-yl)amino)ethyl)-2-methylbenzonitrile]",10.7 nM
10,"CNc1nnc(N[C@H](C)c2cccc(C#N)c2C)c2cn(C3(C)CC3)c(=O)cc12 [Example 83, (R)-2-methyl-3-(1-((1-(methylamino)-6-(1-methylcyclopropyl)-7-oxo-6,7-dihydropyrido[3,4-d]pyridazin-4-yl)amino)ethyl)benzonitrile]",5.6 nM
11,"Cc1c([C@@H](C)Nc2nnc(N3CCN(C4CC4)CC3)c3cc(=O)n(C4(C)CC4)cc23)cccc1C(F)(F)F [Example 92, (R)-1-(4-cyclopropylpiperazin-1-yl)-4-((1-(2-methyl-3-(trifluoromethyl)phenyl)ethyl)amino)-6-(1-methylcyclopropyl) pyrido[3,4-d]pyridazin-7(6H)-one]",10.2 nM
12,"C[C@@H](Nc1nnc(NCC(F)F)c2cc(=O)n(C3(C)CC3)cc12)c1cccc(C(F)F)c1F [Example 134, (R)-1-((2,2-difluoroethyl)amino)-4-((1-(3-(difluoromethyl)-2-fluorophenyl)ethyl)amino)-6-(1-methylcyclopropyl) pyrido[3,4-d]pyridazin-7(6H)-one]",9.5 nM
13,"Cc1c(C#N)cccc1[C@@H](C)Nc1nnc(N2CC3CC3C2)c2cc(=O)n(C3CC3)cc12 (stereo partly drawn) [Example 35, 3-((1R)-1-((1-(3-azabicyclo[3.1.0]hexan-3-yl)-6-cyclopropyl-7-oxo-6,7-dihydropyrido[3,4-d]pyridazin-4-yl)amino)ethyl)-2-methylbenzonitrile]",14.8 nM
14,"C[C@@H](Nc1nnc(N2CCN(C)CC2)c2cc(=O)n(N3CC4CCCC4C3)cc12)c1cccc(C(F)F)c1F (stereo partly drawn) [Example 136, 4-(((R)-1-(3-(difluoromethyl)-2-fluorophenyl)ethyl)amino)-6-(hexahydrocyclopenta[c]pyrrol-2(1H)-yl)-1-(4-methylpiperazin-1-yl)pyrido[3,4-d]pyridazin-7(6H)-one formate]",6.2 nM
15,"CCN(CC)c1nnc(N[C@H](C)c2cccc(C(F)F)c2F)c2cn(C3CC3)c(=O)cc12 [Example 17, (R)-6-cyclopropyl-1-(diethylamino)-4-((1-(3-(difluoromethyl)-2-fluorophenyl)ethyl)amino)pyrido[3,4-d]pyridazin-7(6H)-one]",11.2 nM
16,"Cc1c(C#N)cccc1[C@@H](C)Nc1nnc(N2CCC[C@H]2C)c2cc(=O)n(C3(C)CC3)cc12 [Example 85, 2-methyl-3-((R)-1-((6-(1-methylcyclopropyl)-1-((R)-2-methylpyrrolidin-1-yl)-7-oxo-6,7-dihydropyrido[3,4-d]pyridazin-4-yl)amino)ethyl)benzonitrile]",11.7 nM
17,"C[C@@H](Nc1nnc(N2CCN(C)[C@@H](C)C2)c2cc(=O)n(C3(C)CC3)cc12)c1cccc(C(F)(F)F)c1 [Example 180, 1-((S)-3,4-dimethylpiperazin-1-yl)-6-(1-methylcyclopropyl)-4-(((R)-1-(3-(trifluoromethyl)phenyl)ethyl)amino)pyr ido[3,4-d]pyridazin-7(6H)-one formate]",7.2 nM
18,"C[C@@H](Nc1nnc(N2CCC(F)(F)CC2)c2cc(=O)n(C3(C)CC3)cc12)c1cccc(C(F)F)c1F [Example 23, (R)-4-((1-(3-(difluoromethyl)-2-fluorophenyl)ethyl)amino)-1-(4,4-difluoropiperidin-1-yl)-6-(1-methylcyclopropyl) pyrido[3,4-d]pyridazin-7(6H)-one]",22.4 nM
19,"C[C@@H](Nc1nnc(N2CCC3(CCCO3)CC2)c2cc(=O)n(C3(C)CC3)cc12)c1cccc(C(F)F)c1F [Example 199, (R)-4-((1-(3-(difluoromethyl)-2-fluorophenyl)ethyl)amino)-6-(1-methylcyclopropyl)-1-(1-oxa-8-azaspiro[4.5]decan-8-yl)pyrido[3,4-d]pyridazin-7(6H)-one]",12.5 nM
20,"CC(C)N1CCN(c2nnc(N[C@H](C)c3cccc(C(F)(F)F)c3)c3cn(C4(C)CC4)c(=O)cc23)CC1 [Example 155, (R)-1-(4-isopropylpiperazin-1-yl)-6-(1-methylcyclopropyl)-4-((1-(3-(trifluoromethyl)phenyl)ethyl)amino)pyr ido[3,4-d]pyridazin-7(6H)-one formate]",5.6 nM
21,"C[C@@H](Nc1nnc(N2CC3CC3C2)c2cc(=O)n(C3CC3)cc12)c1cccc(C(F)F)c1F (stereo partly drawn) [Example 18, 1-(3-azabicyclo[3.1.0]hexan-3-yl)-6-cyclopropyl-4-(((R)-1-(3-(difluoromethyl)-2-fluorophenyl)ethyl)amino)pyrido[3,4-d]pyridazin-7(6H)-one]",5.7 nM
22,"C[C@@H](Nc1nnc(N2CCN(C)CC2)c2cc(=O)n(C3CCOC3)cc12)c1cccc(C(F)F)c1F (stereo partly drawn) [Example 127, 4-(((R)-1-(3-(difluoromethyl)-2-fluorophenyl)ethyl)amino)-1-(4-methylpiperazin-1-yl)-6-(tetrahydrofuran-3-yl)pyrido[3,4-d]pyridazin-7(6H)-one]",6.7 nM
23,"Cc1c(C#N)cccc1[C@@H](C)Nc1nnc(N2CCN(C3CC3)CC2)c2cc(=O)n(C3CC3)cc12 [Example 99, (R)-3-(1-((6-cyclopropyl-1-(4-cyclopropylpiperazin-1-yl)-7-oxo-6,7-dihydropyrido[3,4-d]pyridazin-4-yl)amino)ethyl)-2-methylbenzonitrile]",11.3 nM
